We go through 19 molecules from patent publication US20240293392A1, “INHIBITOR COMPOUNDS” (NeoPhore Limited, priority 2021, published 2024).

Test [1] addresses T1, recombinant N-terminal MLH1 (residues 15-340) (Homo sapiens, UniProt P40692).
T1 construct: recombinant N-terminal MLH1 (residues 15-340)
T1 sequence (P40692 15-340): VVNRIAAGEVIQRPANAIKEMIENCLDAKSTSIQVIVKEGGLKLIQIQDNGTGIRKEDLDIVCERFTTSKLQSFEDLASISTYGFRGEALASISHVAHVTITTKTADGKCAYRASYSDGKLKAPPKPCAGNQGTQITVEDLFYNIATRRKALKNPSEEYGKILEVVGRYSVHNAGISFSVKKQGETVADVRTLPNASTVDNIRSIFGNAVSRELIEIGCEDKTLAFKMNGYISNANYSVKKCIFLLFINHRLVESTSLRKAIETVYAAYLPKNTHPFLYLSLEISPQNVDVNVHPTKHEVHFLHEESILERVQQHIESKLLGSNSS
As to the kind of experiment: Fluorescence Polarisation Assay for MLH1. The test is classed as binding. Conditions: fluorescence polarisation probe displacement; 100 nM N-terminal MLH1, 5 nM probe compound. Here is the method:
Fluorescence Polarisation Assay for MLH1
Test compounds, as 10 mM DMSO stocks, were dispensed into a 384-well Low Flange Black Flat Bottom Polystyrene Non-binding Surface plate (Corning®, item number 3575) using a Labcyte Echo acoustic liquid handler. Test compounds were added to wells in columns 1-22 whilst DMSO was added to wells in columns 23 and 24 in order to normalise the plate. 20 μL of a 2× solution (200 nM) of recombinant N-terminal MLH1 (residues 15-340) in assay buffer (25 mM HEPES, pH 7.5, 250 mM NaCl, 10 mM MgCl2, 0.01% Triton X-100, 5 mM dithiothreitol) was added to all wells in columns 1-23 and 20 μL assay buffer was added to all wells in column 24 using an E1-ClipTip pipette (ThermoFisher). Plates were centrifuged for 1 minute at 250×g and were incubated at room temperature for 30 minutes prior to the addition of 20 μL of 2× (10 nM) 5-((5-(4-((2-(2,4-dihydroxy-5-isopropylbenzoyl)isoindolin-5-yl)methyl)piperazin-1-yl)pentyl)carbamoyl)-2-(6-(dimethylamino)-3-(dimethyliminio)-3H-xanthen-9-yl)benzoate in assay buffer (prepared from a 1 mM DMSO stock) with an E1-ClipTip pipette (ThermoFisher). The final concentration of N-terminal MLH1 was 100 nM and the final concentration of the probe compound was 5 nM. Compound plates were centrifuged for 1 minute at 250×g for 1 minute and immediately read on a PheraStar FSX (fitted with 384-well aperture spoon and 590 675 675 FP optic module). The gain and focus were adjusted before each plate was read so that the polarisation of a no enzyme control (column 24) was equal to 35 mP. Data were normalised against the no inhibitor controls (column 23) and no enzyme controls (column 24).

The target of test [2] is T2, recombinant N-terminal PMS2 (residues 1-365) (Homo sapiens, UniProt P54278).
T2 construct: recombinant N-terminal PMS2 (residues 1-365)
T2 sequence (P54278 1-365): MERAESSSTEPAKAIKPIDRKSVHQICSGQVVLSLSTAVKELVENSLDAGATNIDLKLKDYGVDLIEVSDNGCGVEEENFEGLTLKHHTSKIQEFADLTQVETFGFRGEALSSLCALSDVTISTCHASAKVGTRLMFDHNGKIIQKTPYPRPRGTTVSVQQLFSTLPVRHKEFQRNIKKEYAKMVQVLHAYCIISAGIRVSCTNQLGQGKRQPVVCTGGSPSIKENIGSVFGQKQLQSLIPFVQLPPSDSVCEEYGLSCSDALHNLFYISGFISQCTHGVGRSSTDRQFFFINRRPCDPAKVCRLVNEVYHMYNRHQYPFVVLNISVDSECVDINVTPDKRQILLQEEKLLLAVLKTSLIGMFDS
As to the kind of experiment: Fluorescence Polarisation Assay for PMS2. The class given is binding. Conditions: fluorescence polarisation probe displacement; 10 nM N-terminal PMS2, 5 nM probe compound; read-out: PMS2 IC50. The method, then:
Fluorescence Polarisation Assay for PMS2
For single point screening, test compounds were added to wells in columns 1-22 whilst DMSO was added to wells in columns 23 and 24 in order to normalise the plate. For potency determination, serial dilutions of test compounds were added to wells in columns 3-22 and DMSO volume was normalised across the plate.
20 μL assay buffer was added to all wells in columns 1 and 24 (column 24 only for single point screening) using a MultiDrop Combi (ThermoFisher). Plates were centrifuged for 1 minute at 250×g and were incubated at room temperature for 30 minutes prior to the addition of 20 μL of 2× (20 nM) of 5-((5-(4-((2-(2,4-dihydroxy-5-isopropylbenzoyl)isoindolin-5-yl)methyl)piperazin-1-yl)pentyl)carbamoyl)-2-(6-(dimethylamino)-3-(dimethyliminio)-3H-xanthen-9-yl)benzoate (referred to hereinafter as “probe compound”) in assay buffer (prepared from a 100 μM DMSO stock) with a MultiDrop Combi (ThermoFisher). The final concentration of N-terminal PMS2 was 10 nM and the final concentration of probe compound was 5 nM.
Compound plates were centrifuged for 1 minute at 250×g for 1 minute and were incubated at room temperature for 1 hour before being read on a PheraStar FSX (fitted with 384-well aperture spoon and 540 590 590 FP optic module). The gain and focus were adjusted before each plate was read so that the polarisation of a no enzyme control (column 24) was equal to 35 mP. Data were normalised against the no inhibitor controls (column 23) and no enzyme controls (column 24).

SMILES strings stand for the structures. Counter-ions that a name gives are not always drawn.

The term IC50 denotes the point on the concentration scale where inhibition reaches its midpoint. Regarding `COCCNc1cccc2c1CN(C(=O)c1c(O)cc(O)cc1OCc1ccccc1)CC2` [Example 44, (2-(Benzyloxy)-4,6-dihydroxyphenyl)(8-((2-methoxyethyl)amino)-3,4-dihydroisoquinolin-2(1H)-yl)methanone], the concentration for half-maximal inhibition (IC50) is < 1 µM in test [1] and 1 to 10 µM in test [2].
In the case of `O=C(c1c(O)cc(O)cc1OCc1ccccc1)N1CCc2cccc(Nc3ccc(=O)[nH]c3)c2C1` [Example 134, 5-((2-(2-(Benzyloxy)-4,6-dihydroxybenzoyl)-1,2,3,4-tetrahydroisoquinolin-8-yl)amino)pyridin-2(1H)-one], the half-maximal inhibitory concentration (IC50) is < 1 µM in test [1] and > 10 µM in test [2].
Turning to `O=C(c1c(O)cc(O)cc1OCc1ccccc1)N1Cc2cccc(NC3COC3)c2C1` [Example 7, (2-(Benzyloxy)-4,6-dihydroxyphenyl)(4-(oxetan-3-ylamino)isoindolin-2-yl)methanone], the figures for the 50% inhibitory concentration (IC50) in test [1] and in test [2] were < 1 µM and 1 to 10 µM, respectively.
Consider `CN1C[C@H](Nc2cccc3c2CN(C(=O)c2c(O)cc(O)cc2OCc2ccccc2)C3)CC1=O` [Example 136, (R)-4-((2-(2-(Benzyloxy)-4,6-dihydroxybenzoyl)isoindolin-4-yl)amino)-1-methylpyrrolidin-2-one], for which the concentration for half-maximal inhibition (IC50) in test [1] and in test [2] was < 1 µM each time.
In the case of `O=C(c1c(O)cc(O)cc1OCc1ccccc1)N1CCc2cccc(Nc3cccnc3)c2C1` [Example 118, (2-(Benzyloxy)-4,6-dihydroxyphenyl)(8-(pyridin-3-ylamino)-3,4-dihydroisoquinolin-2(1H)-yl)methanone], the IC50 in test [1] and in test [2] was 1 to 10 µM each time.
As to `CNc1cccc2c1CN(C(=O)c1c(O)cc(O)cc1OCc1ccccc1)CC2` [Example 43, (2-(Benzyloxy)-4,6-dihydroxyphenyl)(8-(methylamino)-3,4-dihydroisoquinolin-2(1H)-yl)methanone], the half-maximal inhibitory concentration (IC50) is < 1 µM in test [1] and 1 to 10 µM in test [2].
Taken in the same sequence, the figures for `O=C(c1c(O)cc(O)cc1OCc1ccccc1)N1Cc2cccc(NC3COCC(F)(F)C3)c2C1` (centres unmarked) [Example 32, (2-(Benzyloxy)-4,6-dihydroxyphenyl)(4-((5,5-difluorotetrahydro-2H-pyran-3-yl)amino)isoindolin-2-yl)methanone] were 1 to 10 µM and 1 to 10 µM.
For the molecule `O=C(c1c(O)cc(O)cc1OCc1ccccc1)N1Cc2ccccc2C(O)C1` (single isomer, unassigned) [Example 51, (2-Benzyloxy-4,6-dihydroxy-phenyl)-(4-hydroxy-3,4-dihydro-1H-isoquinolin-2-yl)methanone], the figures for the IC50 in test [1] and in test [2] were 1 to 10 µM and > 10 µM, respectively.
Take `CN(C)C(=O)c1cc2c(c(N[C@H]3CCOC3)c1)CN(C(=O)c1c(O)cc(O)cc1OCc1ccccc1)CC2` [Example 130, (S)-2-(2-(Benzyloxy)-4,6-dihydroxybenzoyl)-N,N-dimethyl-8-((tetrahydrofuran-3-yl)amino)-1,2,3,4-tetrahydroisoquinoline-6-carboxamide]: the IC50 in test [1] and in test [2] was < 1 µM in each case.
As for `O=C(c1c(O)cc(O)cc1OCC1CCCCC1)N1Cc2cccc(NC3CCOC3)c2C1` (centres unmarked) [Example 26, (2-(cyclohexylmethoxy)-4,6-dihydroxyphenyl)(4-((tetrahydrofuran-3-yl)amino)isoindolin-2-yl)methanone], the IC50 in test [1] and in test [2] was 1 to 10 µM throughout.
`O=C(c1c(O)cc(O)cc1OCc1ccccc1)N1Cc2cccc(NC3CCOCC3)c2C1` [Example 15, (2-(Benzyloxy)-4,6-dihydroxyphenyl)(4-((tetrahydro-2H-pyran-4-yl)amino)isoindolin-2-yl)methanone]: the IC50 in test [1] was < 1 µM; in test [2], 1 to 10 µM.
Taken in the same sequence, the figures for `O=C(c1c(O)cc(O)cc1OCc1ccccc1)N1Cc2ccc(CN3CCOCC3)cc2C1` [Example 12, (2-(Benzyloxy)-4,6-dihydroxyphenyl)(5-(morpholinomethyl)isoindolin-2-yl)methanone] were < 1 µM and < 1 µM.
Taken in the same sequence, the figures for `NCCCCCN1CCN(Cc2ccc3c(c2)CN(C(=O)c2c(O)cc(O)cc2OCc2ccccc2)C3)CC1` [Example 104, (5-((4-(5-Aminopentyl)piperazin-1-yl)methyl)isoindolin-2-yl)(2-(benzyloxy)-4,6 dihydroxyphenyl)methanone hydrochloride] were < 1 µM and < 1 µM.
For the molecule `CN1CC(Nc2cccc3c2CN(C(=O)c2c(O)cc(O)cc2OCc2ccccc2)CC3)CC1=O` (single isomer, unassigned) [Example 61, 4-((2-(2-(Benzyloxy)-4,6-dihydroxybenzoyl)-1,2,3,4-tetrahydroisoquinolin-8-yl)amino)-1-methylpyrrolidin-2-one], the IC50 in test [1] is < 1 µM; in test [2], > 10 µM.
`CC(Nc1cccc2c1CN(C(=O)c1c(O)cc(O)cc1OCc1ccccc1)C2)C1COC1` (centres unmarked) [Example 45, (2-(Benzyloxy)-4,6-dihydroxyphenyl)(4-((1-(oxetan-3-yl)ethyl)amino)isoindolin-2-yl)methanone]: the concentration for half-maximal inhibition (IC50) in test [1] and in test [2] was 1 to 10 µM in each case.
With `NCc1cccc2c1CN(C(=O)c1c(O)cc(O)cc1OCc1ccccc1)C2` [Example 83, (4-(Aminomethyl)isoindolin-2-yl)(2-(benzyloxy)-4,6-dihydroxyphenyl)methanone hydrochloride], the half-maximal inhibitory concentration (IC50) in test [1] is < 1 µM; in test [2] it was 1 to 10 µM.
For `O=C(c1c(O)cc(O)cc1OCc1ccncc1)N1Cc2cccc(NC3CCOC3)c2C1` (centres unmarked) [Example 97, (2,4-Dihydroxy-6-(pyridin-4-ylmethoxy)phenyl)(4-((tetrahydrofuran-3-yl)amino)isoindolin-2-yl)methanone], the IC50 is < 1 µM in test [1] and 1 to 10 µM in test [2].
Consider `O=C(c1c(O)cc(O)cc1OCC1CCOCC1)N1Cc2cccc(NC3CCOC3)c2C1` (centres unmarked) [Example 98, (2,4-Dihydroxy-6-((tetrahydro-2H-pyran-4-yl)methoxy)phenyl)(4-((tetrahydrofuran-3-yl)amino)isoindolin-2-yl)methanone], for which the IC50 in test [1] is 1 to 10 µM; in test [2], > 10 µM.
The matching figures for `O=C(c1c(O)cc(O)cc1OCc1ccccc1)N1CCc2ccc(F)c(NC3CCOC3)c2C1` (centres unmarked) [Example 116, (2-(Benzyloxy)-4,6-dihydroxyphenyl)(7-fluoro-8-((tetrahydrofuran-3-yl)amino)-3,4-dihydroisoquinolin-2(1H)-yl)methanone]: 1 to 10 µM and 1 to 10 µM.
